The source of these data is patent publication US11726079B2, “Lighting systems and methods of using lighting systems for in vitro potency assay for Photofrin” (Concordia Laboratories, Inc., priority 2012, dated 2023).

The assay relates to A549 human lung carcinoma cells. Description: Control for the activity of Photofrin® in the absence of irradiation (+D, −L), viability relative to cell control. The format is cell-based. Here is the method:
The plate is covered with a black lid and placed in the incubator for four hours to allow absorption of the drug by the cells. The plate is then removed from the incubator, the drug is aspirated, the wells are washed with Dulbecco's phosphate buffered saline (DPBS) and fresh, pre-warmed medium is added to the wells. The columns of wells not to be irradiated are covered with foil strips, the black lid is exchanged for a clear lid, and the plate is then moved to the irradiation template beneath the light beam and irradiated for ten minutes, for a total of 3.3 joules. The plate is returned to the incubator and assessed for viability using XTT after 24 hours. The wells covered with foil strips are important controls for the activity of Photofrin® in the absence of irradiation and the effect of light on the cells in the absence of drug.
The optical absorbance of the wells in column 1 (high drug concentration, no cells) is evaluated for absorption at 450 nm to ensure that the drug is not interfering with the XTT assay. The percent viability of each of the wells in columns 2-9 and 11 is calculated relative to the mean value of column 10 (cell control, no drug, no light). For each dose response obtained, a four parameter logistic (4PL) nonlinear regression analysis is performed of the percent viability versus the log-Photofrin® concentration. The point of inflection of the regression curve (C value) is defined as the EC50 and used in the calculation of relative potency. Curve fitting and calculation of the EC50 is performed with Softmax v5.4.2 (Molecular Devices, Inc.) or Prism v.5.04 (GraphPad, Software Inc.) software. The mean percent viability of columns 9 and 11 is also calculated.
Critical aspects of the system suitability will include the acceptable performance of the assay controls. The expectation is that the viability of cells receiving no drug but with light (−D, +L) and cells receiving a high concentration of drug but no light (+D, −L) should approximate the viability of the cell control not receiving drug or light (CC). The percent viability of all samples is based on the CC, which is calculated set at 1.00 and is not included in the Table.

Where “and” joins values, the source holds several entries; their conditions need not be identical. Identical values can stand only once.

On to porfimer sodium [Photofrin®], for which the “+D, −L/CC” value (70 μg/mL drug, no irradiation, ratio to cell control (no drug, no irradiation), Plate 1 (left to right dilution; controls in columns 9-11)) was determined as 0.994; the “+D, −L/CC” value (70 μg/mL drug, no irradiation, ratio to cell control, Plate 2 (placement Test, Standard; controls in columns 9-11)) is 0.926; the “+D, −L/CC” value (70 μg/mL drug, no irradiation, ratio to cell control, Plate 3 (right to left dilution; controls in columns 9-11)) came out at 0.981; the “+D, −L/CC” value (70 μg/mL drug, no irradiation, ratio to cell control, Plate 4 (left to right dilution; controls in columns 9-11)) worked out at 0.928; the “+D, −L/CC” value (70 μg/mL drug, no irradiation, ratio to cell control, Plate 5 (left to right dilution; controls in columns 2-4)) worked out at 1.00. Under “70 μg/mL drug, no irradiation, ratio to cell control, mean across Plates 1-5 of positional analysis”, the “+D, −L/CC, Mean” value was 0.967. Moreover, the “+D, −L” value is, setting by setting: (high concentration of drug, no light, viability based on cell control set at 1.00, experiments of Table 1, black plates) 1.05 and 0.893 and 1.09; (high concentration of drug, no light, viability based on cell control set at 1.00, experiments of Table 1, clear plates (significant cell killing, excluded from the analysis)) 0.012 and 0.019 and 0.024; (high concentration of drug, no light, viability based on cell control set at 1.00, experiments of Table 2, black plates) 1.06 and 0.947 and 0.986; (high concentration of drug, no light, viability based on cell control set at 1.00, experiments of Table 4, black plates) 0.994 and 0.926 and 0.981 and 0.928 and 1.00; (high concentration of drug, no light, viability based on cell control set at 1.00, experiments of Table 5, black plates) 0.999 and 1.02 and 1.00 and 1.29 and 0.973; (high concentration of drug, no light, viability based on cell control set at 1.00, experiments of Table 6, black plates) 0.990 and 0.981 and 0.977. Further, the “+D, −L” value was 0.973 and 1.00 (high concentration of drug, no light, viability based on cell control set at 1.00, experiments of Table 7, black plates); 1.02 and 0.992 and 0.995 and 0.959 and 0.985 (high concentration of drug, no light, viability based on cell control set at 1.00, experiments of Table 8, black plates); 1.01 and 0.898 and 0.959 (high concentration of drug, no light, viability based on cell control set at 1.00, experiments of Table 9, black plates); 1.09 and 1.08 and 0.995 (high concentration of drug, no light, viability based on cell control set at 1.00, experiments of Table 10, black plates); 0.980 and 0.973 and 1.02 and 0.956 (high concentration of drug, no light, viability based on cell control set at 1.00, experiments of Table 11, black plates); 0.990 and 0.906 and 1.03 and 1.02 and 1.00 (high concentration of drug, no light, viability based on cell control set at 1.00, experiments of Table 12, black plates). In addition, the “+D, −L, Mean” value (high concentration of drug, no light, viability based on cell control set at 1.00, mean of all experiments, clear plate values excluded) was found to be 1.00.
